Reference: patent US8642337B2, “Defined surfaces of self-assembled monolayers and stem cells” (Wisconsin Alumni Research Foundation, priority 2005, dated 2014)
No end group written: not given here.

How the values were obtained:
hES cells (H1 and H9) = experiment: hES cell adhesion and growth screen on arrays of SAMs presenting peptides; assay type: cell-based, human; conditions: for Ability to support ES cell growth: laminin fragment screen on SAM array
Procedure: Human Embryonic Stem Cell Propagation and Plating: The human ES cell line, H1, was grown on Matrigel®-coated plates in MEF-CM supplemented with 4 ng/mL basic fibroblast growth factor (bFGF). To produce CM, MEFs were seeded at a density of 2.12×10^5 cells/mL and fed medium consisting of DMEM/F12, 20% Knockout™ serum replacement, 2 mM L-glutamine, 1% minimal essential media nonessential amino acids and 0.1 mM β-mercaptoethanol. Both cell lines (H1 and MEF) were maintained at 37° C./5% CO2 with CM collected, and cells fed approximately every 24 hours. Cell suspensions were made by treating with collagenase IV (1 mg/mL) for 10-12 minutes. The cells were scraped from the surface and suspended in CM.
Chips were sterilized as described above. To aid in ES cell patterning, the chips were then soaked in DMEM/F12 with 15% defined FBS for 1-2 hours and washed thoroughly. Then cells were plated on each chip (1-2×10^6 cells/chip) and allowed to incubate overnight. The next morning the chips were moved to fresh wells and fed with CM.
Test for alkaline phosphatase activity: The procedure for staining for alkaline phosphatase activity was essentially identical to the procedure supplied by the manufacturer. After propagation of the ES cells, the media was removed. The reagents in 100 mM Tris pH 8.5 were incubated with the chips for 30 minutes at 25° C. The chips were washed gently for 5 min with Tris buffer and then fixed and dried as usual.
We tested arrays of SAMs presenting a number of short peptides for their ability to support the growth of undifferentiated hES cells. The screen was done with the array presenting square elements of 0.5×0.5 mm (FIG. 1b) or 0.8×0.8 mm size (FIG. 1c). The 0.5×0.5 mm allowed 196 binding elements to be located on a single 22 mm square chip, and in turn the chip can easily fit in one well of a six-well culture plate. The ability of microarrays to localize multiple experiments to same a solution environment is invaluable for applications requiring frequent maintenance. For example, cultures of undifferentiated ES cell require daily changes of growth media. These changes can be easily performed on the entire microarray in one large well of a cell culture plate. For comparison, daily maintenance of experiments, on the same scale, performed in two 96-well plates, while practical, would require either significant human labor or specialized robotic equipment to function in a sterile environment to perform daily maintenance.
Cells grown on Matrigel® were detached using collagenase treatment and were plated on the microarray chip in the presence of CM. After twenty-four hours, media was replaced to remove dead and non-adherent cells. Attached cells were allowed to proliferate on the chip for five to six days and were supplement with fresh conditioned growth media daily. The experiment was stopped once cells reached 100% density in several (but not all) array elements. If continued, the cells in the array elements presenting 100% cell density usually detached, yielding square-shaped sheets of cells floating in solution, while cells in the other elements continued proliferation (not shown). This observation is consistent with those made earlier indicating cell growth variability in multi-component arrays and importance of the balanced duration of the experiment. Once the experiment was stopped, the cells were fixed and stained for markers of hES cell pluripotency. […]

hES cells = experiment: FACS analysis of ES cells proliferated on large areas presenting synthetic substrates (one-component SAMs); assay type: cell-based, human; conditions: for Oct4 (% population): FACS, ES cells on one-component SAMs on 22×22 mm gold-coated substrates, after 1 week
Excerpt: Examination of the cell population within an array element provides a semi-quantitative indication of differentiation state of the ES cells. More rigorous analysis involves fluorescence-activated cell sorting (FACS) measurements to identify what population of the cells express specific markers of pluripotent stem cells. Therefore, we proliferated hES cells on gold-coated substrates of larger area (22×22 mm) containing one-component SAMs. FIG. 2a illustrate a representative FACS analysis of an ES cell population grown on a synthetic substrate after 1 week. Table 1 outlines the percentages of Oct4 positive cells obtained from each particular substrate. […] Specifically, we tested hES cell line H9 grown in synthetic media supplemented with high concentrations of basic FGF (referred to as UM100, indicating presence of […] of FGF-2 among the other components). Importantly, these conditions support growth of undifferentiated hES cells on Matrigel®.

[1] = test system: Swiss 3T3 fibroblast cells; experiment: Fibroblast adhesion on patterned SAM chips/arrays; assay type: cell-based
Procedure: (§1) General Preparation of the Arrays of Self-Assembled Monolayers (Assembly After Conjugation Strategy): Chromium (1 nm) and then gold (25 nm) were evaporated onto piranha-cleaned glass coverslips (Corning No […], 23 mm squares) using a thermal evaporator (Denton Vacuum, Moorestown, N.J.). Substrates were immediately immersed into a 1 mM solution of fluoro-AT in absolute ethanol. After twenty-four hours, substrates were thoroughly rinsed with ethanol and dried under a stream of nitrogen. Coverslips with fluoro-AT SAM were irradiated with UV-light (1 kW, Hg—Xe Research Arc Lamp, Oriel Instruments (Spectra-Physics, Stratford, Conn.) through a quartz photomask (array of 500 μm or 750 μm squares, 0.067 quartz-chromium mask (Photo Sciences, Torrance, Calif.)) for 1 hour. Irradiated samples were rinsed thoroughly using several repetitive washes with absolute ethanol and distilled water and dried under a steam of nitrogen. Spotting of AT solutions onto the bare gold areas was performed within two hours of the photolithography. Spotting was performed manually using a P2-Pipetman (Gilson) in a humidity chamber. Spotted arrays were stored in the humidity chamber for twelve hours and thoroughly washed using repeated washes with ethanol and water. Rapid flow during washing was used to prevent cross-contamination of array spots.
Cell Culture: A neuroblastoma cell line, SH-SY5Y, was grown in 10% heat-inactivated fetal bovine serum (HI FBS), 45% high glucose Dulbecco's modified Eagle medium (DMEM), 45% Ham's F12 nutritional supplement (F12) with penicillin and streptomycin in an atmosphere of 5% CO2 at 37° C. A fibroblast cell line, Swiss 3T3, was propagated in 10% HI FBS in DMEM. For plating of the cells on the chips, cells were incubated at 37° C. with 5% trypsin/ethylenediamine-tetraacetic acid (EDTA), centrifuged and resuspended in media at 2×10^5 cells/mL and 5×10^5 cells/mL for the fibroblasts and neuroblastomas, respectively. Chips were sterilized by placing each in a single well of a 6-well plate, soaking in 70% ethanol, and drying under UV light for 1 hour. […]

[2] = test system: SH-SY5Y neuroblastoma cells; experiment: Neuroblastoma adhesion on patterned SAM chips/arrays; assay type: cell-based
Procedure: as §1
Cell Culture: A neuroblastoma cell line, SH-SY5Y, was grown in 10% heat-inactivated fetal bovine serum (HI FBS), 45% high glucose Dulbecco's modified Eagle medium (DMEM), 45% Ham's F12 nutritional supplement (F12) with penicillin and streptomycin in an atmosphere of 5% CO2 at 37° C. A fibroblast cell line, Swiss 3T3, was propagated in 10% HI FBS in DMEM. For plating of the cells on the chips, cells were incubated at 37° C. with 5% trypsin/ethylenediamine-tetraacetic acid (EDTA), centrifuged and resuspended in media at 2×10^5 cells/mL and 5×10^5 cells/mL for the fibroblasts and neuroblastomas, respectively. Chips were sterilized by placing each in a single well of a 6-well plate, soaking in 70% ethanol, and drying under UV light for 1 hour. To the individual chips was added 3 mL of the cell suspensions to each well. After 2-5 hours, the media was gently replaced three times and the chips were picked up, transferred to a clean well and 3 mL of media was added. The cells on the chips were typically propagated between 1-7 days. The media was then removed, and the cells were fixed in PFA buffer (2% paraformaldehyde, 350 mM NaCl, 150 mM HEPES, 10 mM CaCl2, pH 7.4) for 20 minutes at 0° C. The cells were washed twice with Dulbecco's phosphate buffered saline and stained (0.1% Coomassie Brilliant Blue in H2O/MeOH/AcOH (50:50:1)) for 5-15 minutes after which the cells were washed twice with water and air dried. […]

hES cells (H1B) = experiment: Differentiation experiment: Oct-4 immunofluorescence on peptide surface arrays; assay type: cell-based, human; conditions: cultured on arrays thirteen days
Excerpt: Differentiation Experiment: SIDQVEPYSSTAQ (FGF, SEQ ID NO:8) is known to bind FGF receptor. FGF signaling, in turn, can suppress hES cell differentiation. […] (SEQ ID NO:9) is known to bind BMP-receptor. BMP signaling induces hES cell differentiation. KKQRFRHRNRKG (VHB, SEQ ID NO:10) is a heparin binding motif from vitronectin. Vitronectin supports hES cell adhesion. RGD peptide is known to bind cell surface receptors (integrins) involved in adhesion of various cell types.
hES cells (H1B) were passaged using the protease dispase from Matrigel® to the peptide surface arrays described above containing either BMP/RGD, BMP/VHB, FGF, FGF/RGD or FGF/VHB at various concentrations. hES cells were cultured on the arrays for thirteen days, fixed and stained by immunofluorescence. The cells were stained for a marker of pluripotency, Oct-4 (Green), and counterstained with DAPI (Blue).

## GRNIAEIIKDI (not fully specified (C-terminus); also: alkane thiol SAM)
hES cells (H1 and H9); H1 cells, peptide-AT co-assembled with glucamine-AT
  Cell binding to peptide on surface density gradient array: exhibits specific binding
hES cells
  Oct4 (% population): 98.12 % population

## SDPGYIGSR (not fully specified (C-terminus); also: SAM immobilized) [laminin peptide containing YIGSR recognition motif, presented on SAM in either orientation]
hES cells (H1 and H9); N-to-C orientation exposing YIGSR moiety
  ES cell adhesion: supports cell adhesion for ES cells, albeit with moderate reproducibility
hES cells (H1 and H9); switched surface orientation, exposing SDPG-portion, same plating environment
  ES cell adhesion: obliterates cell adhesion

## YIGSR: sequence found in the matrix protein laminin, presented as peptide-AT array element (not fully specified (C-terminus); also: AT array conjugate) [reference compound]
hES cells (H1 and H9)
  Ability to support ES cell growth: support ES cell growth
[1]; fibroblasts, mixtures of polyol-AT and peptide-AT spotted
  Cell binding to peptide array element: bound modestly
[2]; neuroblastoma cells, mixtures of polyol-AT and peptide-AT spotted
  Cell adherence to peptide array element: adhered

## GNRWHSIYITRFG
hES cells (H1 and H9)
  Ability to support ES cell growth: support ES cell growth

## GRYVVLPR (not fully specified (C-terminus); also: alkane thiol SAM)
hES cells
  Oct4 (% population): 98.99 % population

## O=C(O)COCCOCCOCCOCCOCCCCCCCCCCCS [PEG acid-AT]
[1]; Swiss 3T3, PEG acid-AT diluted with polyol-AT in spotting solutions
  Measured cell adhesion versus mole fraction of acid: decreased as the mole fraction of the acid in the spotting solutions approached 0.2
[1]; Swiss-3T3, chips with fluoro-AT SAM background and PEG acid-AT squares made by immersion
  Cell growth on surface: dense squares of cells
[2]; SH-SY5Y, PEG acid-AT diluted with polyol-AT in spotting solutions
  Measured cell adhesion versus mole fraction of acid: decreased as the mole fraction of the acid in the spotting solutions approached 0.2
[2]; SH-SY5Y, SAMs formed by spotting AT solutions on bare gold squares
  Cell binding to spotted SAM: cells affixed to only the expected cytophilic surface
[2]; SH-SY5Y, chips with fluoro-AT SAM background and PEG acid-AT squares made by immersion
  Cell growth on surface: dense squares of cells

## FGF: peptide known to bind FGF receptor (SIDQVEPYSSTAQ)
hES cells (H1B)
  hES cell self-renewal / Oct-4 expression: no longer express Oct-4

## DIRVTLNRL (not fully specified (C-terminus); also: alkane thiol SAM)
hES cells
  Oct4 (% population): 99.62 % population

## DITYVRLKF (not fully specified (C-terminus); also: alkane thiol SAM)
hES cells
  Oct4 (% population): 99.78 % population
hES cells; hES cell line H9, UM100 media (100 mg/ml of FGF-2), 1 week of culture
  Oct4 expression by FACS: high level of Oct4 expression
